Non-standard residues stand in square brackets, D forms with d. Residues, ends and D or L forms follow the SMILES beside them. *: point of attachment. Cha = N[C@@H](CC1CCCCC1)C(=O)O; For = O=C*
What was measured:
[1] = target: T1, human FPR2 (Homo sapiens, UniProt P25090); assay: Calcium mobilization, CHO cells expressing FPR2; type: cell-based; settings: mean ± SEM; for Emax: normalized to ATP 100 µM, read-out: [Ca2+]i mobilization FPR2 Emax; for EC50: read-out: [Ca2+]i mobilization FPR2 pEC50 (converted)
T1 construct: expressed in transfected cells
T1 sequence (P25090 1-351): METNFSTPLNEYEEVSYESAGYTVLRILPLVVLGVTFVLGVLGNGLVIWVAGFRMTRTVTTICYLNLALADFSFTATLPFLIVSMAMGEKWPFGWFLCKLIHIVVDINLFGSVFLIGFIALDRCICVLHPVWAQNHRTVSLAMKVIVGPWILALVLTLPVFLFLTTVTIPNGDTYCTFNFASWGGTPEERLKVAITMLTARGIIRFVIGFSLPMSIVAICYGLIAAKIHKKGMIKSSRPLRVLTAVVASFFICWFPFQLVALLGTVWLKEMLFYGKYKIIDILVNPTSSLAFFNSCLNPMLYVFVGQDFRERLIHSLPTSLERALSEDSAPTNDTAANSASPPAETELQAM
Protocol: (§1) FlpIn Chinese hamster ovary (CHO) cells stably expressing either the human FPR1 or FPR2. Both of the cell lines were cultured in Dulbecco’s modified eagle medium (DMEM), which contained 10% foetal bovine serum (FBS, JRH Biosciences) and 500 µg/mL of the antibiotic hygromycin-B (Invitrogen Inc). Cells were grown at 37 °C in a humidified incubator containing 5% CO2 as described previously. Cells were seeded into 96-well tissue culture plates (4 × 10^4 cells/well) and after 6–8 h, cells were washed with PBS twice (50 µL/well in each washing step) and then starved by incubating in 90 µL/well of serum-free DMEM overnight at 37 °C in 5% CO2 before assaying for ERK1/2 phosphorylation (pERK1/2) and intracellular Ca^2+ mobilization.
(§2) For the calcium mobilization assay, the cells were plated and starved in the same manner as the pERK1/2 assay, before washing the cells once in HEPES buffered saline (HBS) solution [150 mM NaCl, 1.3 mM CaCl2, 5 mM KCl, 1 mM MgSO4.7H2O, 1.5 mM NaHCO3, 10 mM HEPES, and 10 mM D-glucose; pH 7.4]. Then the cells were incubated at 37 °C under 5% CO2 condition with HBS containing 0.5% (w/v) bovine serum albumin (BSA), 4 mM probenecid and 1 µM Fluo-8-AM (Abcam) for 1 h. FlexStation three plate reader (Molecular Devices) were used to determine Ca^2+ mobilization. The peak change in fluorescence signal was normalized to the vehicle (HBS solution) and the cellular response mediated by the positive control, adenosine triphosphate (ATP, 100 µM), and fitted with nonlinear regression curve in GraphPad Prism 9.0.
(§3) Non-linear regression was performed using GraphPrism 9.0. […] Significance was determined using Student’s unpaired t test, with two-tailed p values of <0.05 considered statistically significant.

[2] = target: T2, human FPR1 (Homo sapiens, UniProt P21462); assay: Calcium mobilization, CHO cells expressing FPR1; type: cell-based; settings: mean ± SEM; for Emax: normalized to ATP 100 µM, read-out: [Ca2+]i mobilization FPR1 Emax; for EC50: read-out: [Ca2+]i mobilization FPR1 pEC50 (converted)
T2 construct: expressed in transfected cells
T2 sequence (P21462 1-350): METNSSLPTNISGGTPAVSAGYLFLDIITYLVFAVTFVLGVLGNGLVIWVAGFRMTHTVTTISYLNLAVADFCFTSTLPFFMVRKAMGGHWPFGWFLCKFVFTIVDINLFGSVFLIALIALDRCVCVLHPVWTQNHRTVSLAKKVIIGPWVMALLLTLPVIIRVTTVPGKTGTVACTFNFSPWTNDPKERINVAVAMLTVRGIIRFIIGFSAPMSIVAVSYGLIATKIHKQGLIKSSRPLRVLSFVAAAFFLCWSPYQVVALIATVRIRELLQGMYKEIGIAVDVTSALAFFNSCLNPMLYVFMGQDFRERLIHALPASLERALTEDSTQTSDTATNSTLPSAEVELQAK
Protocol: as §1, §2, §3

[3] = target: T2, human FPR1; assay: ERK1/2 phosphorylation, CHO cells expressing FPR1; type: cell-based; settings: 5 min, mean ± SEM; for Emax: normalized to 10% FBS; for EC50: read-out: ERK1/2 phosphorylation FPR1 pEC50 (converted)
Protocol: as §1
(§4) A time course was used to assess peak pERK1/2 phosphorylation for all the compounds. The positive control of 10% FBS, and serum-free DMEM as vehicle control. […] All the compounds were tested with time points taken at 0, 5, 7, 10, 20, 30.
(§5) For both the time course and concentration-response curves, the stimulation was terminated by the rapid removal of serum-free DMEM with agonists and adding 100 μL/well of SureFire lysis buffer. The detection step was performed according to the manufacturer’s instructions (AlphaScreen detection kit, PerkinElmer Life and Analytical Science)[49]. Data were normalized to the vehicle (serum-free DMEM) and the response elicited by 10% FBS, with nonlinear regression performed using GraphPad Prism 9.0.
as §3

[4] = target: T1, human FPR2; assay: ERK1/2 phosphorylation, CHO cells expressing FPR2; type: cell-based; settings: 5 min, mean ± SEM; for Emax: normalized to 10% FBS; for EC50: read-out: ERK1/2 phosphorylation FPR2 pEC50 (converted)
Protocol: as §1, §4, §5, §3

[5] = system: pHrodo Red S. aureus BioParticles phagocytosed by human neutrophils; assay: Infection-on-a-chip phagocytosis (pHrodo fluorescence); type: cell-based; settings: at 2 h
Protocol: For neutrophils used in microfluidic devices, de-identified fresh blood samples (10 mL) were purchased from Research Blood Components where blood samples were obtained from healthy volunteers aged ≥18 years who were not receiving immunosuppressant agents. Additionally, venous blood samples from healthy volunteers were collected by phlebotomy, after receipt of written informed consent, and under approval by the MGH Institutional Review Board (protocol 2008-P-002123). Neutrophils were isolated from whole blood using EasySep direct human neutrophil isolation kit (StemCell Technologies) as per the manufacturer’s instructions.
Use of this microfluidic device for monitoring migration of neutrophils and control of the S. aureus growth in cell culture medium has been outlined in detail previously. Briefly, microfluidic devices were primed with S. aureus (SH1000-GFP, 1 × 10^6/mL) in culture media (Iscove’s Modified Dulbecco’s Medium + 10% Fetal Bovine Serum) by loading the outer chamber and applying vacuum to draw bacteria into the inner chambers. The outer chamber was then washed by pushing 200 µL of media through the device using a pipette, and loaded with neutrophils (5.5 × 10^6/mL, stained with Hoechst 33342 dye, 10 min at 32 μM). Additionally, neutrophil phagocytosis was monitored by using pHrodo Red S. aureus BioParticles® (Life Technologies) in replace of live S. aureus cells. BioParticles were used at a final concentration of 1 × 10^7/mL, which gave 50–100 BioParticles within the microchamber. The concentration of cells were determined by hemocytometer.
Kinetics of neutrophil migration, S. aureus growth and phagocytosis was determined using imaging with an automated Nikon Eclipse TiE inverted wide-field microscope with stage control and perfect focus system run through the Nikon NIS element v4. The biochamber was maintained temperature at 37 °C and CO2 at 5% for the 8 h of the experiment, where images were captured every 5 min for each field of view (FOV), with at least 4 FOV captured per experimental condition. For each experimental condition at least 12 chambers were tracked for neutrophil migration using the FIJI[64] plugin Trackmate[65]. The percentage of neutrophils recruited into the chamber was determined relative to the total number of neutrophils in each FOV divided by the number of chambers visible. Data were averaged and the results from at least 3 donors plotted. The pHrodo or S. aureus GFP fluorescence within the microchamber was calculated by thresholding the image and measuring the area in FIJI[36]. Data were plotted using GraphPad Prism 8 software (GraphPad Software, San Diego, CA, USA).

[6] = target: T3, formyl peptide receptor 1 (FPR1) (human, UniProt P21462 1-350)
T3 sequence (looked up): T2 sequence (P21462 1-350)

[7] = system: FPR2 of human neutrophils; assay: FPR competition binding assay with RhB-PB10; settings: 8 µM peptide, 5 min, after RhB-PB10 15 µM 1 h, Bis-Tris pH 6
Protocol: A competition binding assay was performed based modification of the previous method. To determine the interaction of the formylated peptides with FPR2 of human neutrophils the fluorescently labelled FPR2 antagonist RhB-PB10 was used. RhB-PB10 was synthesized by solid-phase peptide synthesis on Wang resin. After initial acylation with Fmoc-L-Arg(Pbf)-OH, peptide elongation was performed using a solution of 20% piperidine for Fmoc removal and DIC/ Oxyma for Fmoc-amino acid or Rhodamine B coupling. After completion of the sequence, the peptide was cleaved from the resin and protecting groups were removed via TFA cleavage. Following concentration, the peptide was precipitated using diethyl ether, collected by centrifugation on a spark-resistant centrifuge and purified using RP-HPLC.
RhB-PB10 (15 μM) was preincubated with human neutrophils (5 × 10^6 neutrophils/mL) in Bis-Tris buffer pH 6 for 1 h. […] Any RhB-PB10 that was competed off by the peptides was then removed by washing in Bis-Tris buffer. Rhodamine B fluorescence levels of each sample were determined using microplate reader (Clariostar plate reader, BMG) with ex 550 nm, em 585 nm.

Row | Compound | Emax [1] [%] | Emax [2] [%] | Emax [3] [%] | Emax [4] [%] | area of pHrodo fluorescence per neutrophil recruited into the microchamber ([5]; donor 2) | area of pHrodo fluorescence per neutrophil recruited into the microchamber ([5]; donor column 1) | area of pHrodo fluorescence per neutrophil recruited into the microchamber ([5]; donor column 3) | area of pHrodo fluorescence per neutrophil recruited into the microchamber ([5]; donor column 4) | other results
1 | CN[C@H](CC(C)C)C(=O)N[C@H]1C(=O)N[C@@H](CC(N)=O)C(=O)N[C@H]2C(=O)N[C@H]3C(=O)N[C@H](C(=O)N[C@H](C(=O)NCCCn4cc(C[C@H](NC(=O)CNC(=O)[C@H](Cc5ccccc5)NC(=O)[C@H](CC(C)C)NC(=O)[C@H](CCSC)NC=O)C(N)=O)nn4)c4cc(O)cc(O)c4-c4cc3ccc4O)[C@H](O)c3ccc(c(Cl)c3)Oc3cc2cc(c3O[C@@H]2O[C@H](CO)[C@@H](O)[C@H](O)[C@H]2O[C@H]2C[C@](C)(N)[C@H](O)[C@H](C)O2)Oc2ccc(cc2Cl)[C@H]1O [C1, Van-C(fMLFG-Tz)] | 45 ± 10 | 34 ± 8 | 77 ± 8 | 99 ± 9 |  |  |  |  | 
2 | CN[C@H](CC(C)C)C(=O)N[C@H]1C(=O)N[C@@H](CC(N)=O)C(=O)N[C@H]2C(=O)N[C@H]3C(=O)N[C@H](C(=O)N[C@H](C(=O)NCCCn4cc(C[C@H](NC(=O)CNC(=O)[C@H](Cc5ccccc5)NC(=O)[C@H](CC5CCCCC5)NC(=O)[C@H](CCSC)NC=O)C(N)=O)nn4)c4cc(O)cc(O)c4-c4cc3ccc4O)[C@H](O)c3ccc(c(Cl)c3)Oc3cc2cc(c3O[C@@H]2O[C@H](CO)[C@@H](O)[C@H](O)[C@H]2O[C@H]2C[C@](C)(N)[C@H](O)[C@H](C)O2)Oc2ccc(cc2Cl)[C@H]1O [C11, Van-C(fM-Cha-FG-Tz)] | 27 ± 3 | 24 ± 3 | 83 ± 3 | 84 ± 4 |  |  |  |  | 
3 | CSCC[C@H](NC=O)C(=O)N[C@@H](CC(C)C)C(=O)N[C@@H](Cc1ccccc1)C(=O)NCC(N)=O [FP1, fMLFG-NH2] (For-MLFG-NH2) | 34 ± 7 | 27 ± 4 | 86 ± 8 | 82 ± 7 |  |  |  |  | EC50 [1]: 1.35 µM; EC50 [2]: 0.00676 µM; EC50 [3]: 0.00251 µM; EC50 [4]: 2.88 µM
4 | CSCC[C@H](NC=O)C(=O)N[C@@H](CC1CCCCC1)C(=O)N[C@@H](Cc1ccccc1)C(=O)NCC(N)=O [FP11, fM-Cha-FG-NH2] (For-M[Cha]FG-NH2) | 43 ± 13 | 27 ± 4 | 90 ± 8 | 81 ± 9 |  |  |  |  | EC50 [1]: 1.32 µM; EC50 [2]: 0.00955 µM; EC50 [3]: 0.00219 µM; EC50 [4]: 1.86 µM
5 | CSCC[C@H](NC=O)C(=O)N[C@@H](CC(C)C)C(=O)N[C@@H](Cc1ccccc1)C(=O)O [fMLF, N-formyl-Met-Leu-Phe, reference compound] | 18 ± 4 |  |  | 99 ± 27 |  |  |  |  | 
6 | Van-C(fML-Tyr-G-Tz) [C19] |  |  |  |  | 3.5 | 9.2 | 7.8 | 2.6 | 
7 | Van-C(fMLF-Leu-Tz) [C18] |  |  |  |  | 4.4 | 7.9 | 2.1 | 1.8 | 
8 | fMChaFG = van (fMChaFG conjugated to the C-terminus of vancomycin) (peptide) |  |  |  |  |  |  |  |  | ERK1/2 phosphorylation at 5 min in CHO cells overexpressing human FPR1, potency of the conjugate against the free peptide (lower potency) [6]: 10 fold; calcium mobilization in CHO cells overexpressing human FPR1, potency of the conjugate against the free peptide (lower potency) [6]: > 90 fold
9 | fMIVIL [FPR2 specific agonist (Auspep)] |  |  |  |  |  |  |  |  | RhB-PB10 binding to neutrophils relative to control (=1) ([7]; replicate 1): 0.81; RhB-PB10 binding to neutrophils relative to control (=1) ([7]; replicate 2): 0.79; RhB-PB10 binding to neutrophils relative to control (=1) ([7]; replicate 3): 0.62; RhB-PB10 binding to neutrophils relative to control (=1) ([7]; replicate 4): 0.75; RhB-PB10 binding to neutrophils relative to control (=1) ([7]; replicate 5): 0.7
10 | fML-Tyr-G-NH2 [FP12] |  |  |  |  | 4.1 | 4.7 | 1.5 | 2.8 | 
11 | fMLF-Leu-NH2 [FP19] |  |  |  |  | 7.8 | 6.5 | 1.5 | 2.3 | 

— PMC8546149, “Antibiotic-chemoattractants enhance neutrophil clearance of Staphylococcus aureus” (Nature Communications, 2021)
